From ChEMBL document CHEMBL3611980, “Design, synthesis of benzocoumarin-pyrimidine hybrids as novel class of antitubercular agents, their DNA cleavage and X-ray studies” (Eur J Med Chem, 2015)
≈ marks a conversion by molar mass, not a printed value. Calls of active or inactive are those of the source. The rule behind the calls is not given here.

Legend:
Bos taurus = species on record: Bos taurus; test: Induction of DNA cleavage in calf thymus DNA at 10 ug after 2 hrs by agarose gel electrophoresis method
[1] = Cytotoxicity against African green monkey Vero cells assessed as cell survival at 10 times MIC after 72 hrs by MTT assay; type: cell-based; settings: chlorocebus sabaeus, read-out: Survival
[2] = system: Mycobacterium tuberculosis; test: Antitubercular activity against Mycobacterium tuberculosis H37Rv ATCC 27294 at 6.25 ug/ml after 5 days by microplate Alamar Blue assay; type: functional; settings: H37Rv ATCC 27294, 120 h
[3] = system: Mycobacterium tuberculosis; test: Antitubercular activity against Mycobacterium tuberculosis H37Rv ATCC 27294 after 5 days by microplate Alamar Blue assay; type: functional; settings: H37Rv ATCC 27294, 120 h

Structure (SMILES) | Activity (Bos taurus) | viability at 72 h, 10 times MIC [1] | inhibition at 6.25 µg/mL [2] | MIC [3]
O=c1oc2ccc3ccccc3c2cc1-c1cc(-c2cccc(Cl)c2)nc(Cc2ccc(F)cc2)n1 | Active | 75% | 93% | 1.56 µg/mL (≈ 3.16 µM)
O=c1oc2ccc3ccccc3c2cc1-c1cc(-c2ccc(Cl)cc2)nc(Cc2ccc(F)cc2)n1 | – | 79% | 96% | 1.21 µg/mL (≈ 2.45 µM)
COc1ccccc1-c1cc(-c2cc3c(ccc4ccccc43)oc2=O)nc(Cc2ccc(F)cc2)n1 | – | 91% | 98% | 0.78 µg/mL (≈ 1.6 µM)
Cc1ccccc1-c1cc(-c2cc3c(ccc4ccccc43)oc2=O)nc(Cc2ccc(F)cc2)n1 | – | – | 73% | –
NNC(=O)c1ccncc1 [ISONIAZID] | – | 100% | 100% | 0.02 µg/mL (≈ 0.146 µM)
O=c1oc2ccc3ccccc3c2cc1-c1cc(-c2ccccc2Br)nc(Cc2ccc(F)cc2)n1 | – | – | 77% | –
COc1cccc(-c2cc(-c3cc4c(ccc5ccccc54)oc3=O)nc(Cc3ccc(F)cc3)n2)c1 | – | 93% | 100% | 0.19 µg/mL (≈ 0.389 µM)
Cc1ccc(-c2cc(-c3cc4c(ccc5ccccc54)oc3=O)nc(Cc3ccc(F)cc3)n2)cc1 | – | – | 81% | –
COc1ccc(-c2cc(-c3cc4c(ccc5ccccc54)oc3=O)nc(Cc3ccc(F)cc3)n2)cc1 | Active | 97% | 100% | 0.05 µg/mL (≈ 0.102 µM)
O=c1oc2ccc3ccccc3c2cc1-c1cc(-c2cccc(Br)c2)nc(Cc2ccc(F)cc2)n1 | – | 64% | 93% | 2.81 µg/mL (≈ 5.23 µM)
O=c1oc2ccc3ccccc3c2cc1-c1cc(-c2ccccc2[N+](=O)[O-])nc(Cc2ccc(F)cc2)n1 | – | 17% | 90% | 6.25 µg/mL (≈ 12.4 µM)
O=c1oc2ccc3ccccc3c2cc1-c1cc(-c2cccc([N+](=O)[O-])c2)nc(Cc2ccc(F)cc2)n1 | Active | 26% | 91% | 3.12 µg/mL (≈ 6.2 µM)
O=c1oc2ccc3ccccc3c2cc1-c1cc(-c2ccccc2Cl)nc(Cc2ccc(F)cc2)n1 | – | – | 75% | –
O=c1oc2ccc3ccccc3c2cc1-c1cc(-c2ccc([N+](=O)[O-])cc2)nc(Cc2ccc(F)cc2)n1 | – | 39% | 95% | 2.81 µg/mL (≈ 5.58 µM)
O=c1oc2ccc3ccccc3c2cc1-c1cc(-c2ccc(Br)cc2)nc(Cc2ccc(F)cc2)n1 | Active | 72% | 96% | 1.56 µg/mL (≈ 2.9 µM)
Cc1cccc(-c2cc(-c3cc4c(ccc5ccccc54)oc3=O)nc(Cc3ccc(F)cc3)n2)c1 | – | – | 76% | –
